Consider three molecules from US6376497B1, “Antifungal azole derivatives having a fluorinated vinyl group and process for preparing same” (Korea Research Institute of Chemical Technology, priority 1999, dated 2002).

Data set [1] concerns mouse. Conditions: oral; cited from earlier work.
Data set [2] concerns mouse. Particulars: intravenous; cited from earlier work.
The subject of data set [3] is Trichophyton mentagrophytes B. 32663. Briefly: In vitro antifungal activity, microbroth dilution MIC. Format: cell-based. Particulars: T. mentagrophytes B. 32663, RPMI-1640, 35° C., 4 to 48 hours. The method in brief:
(§1)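 Broth microdilution adapted from NCCLS M27, in RPMI-1640 with 0.165 M MOPS, pH 7.0. Yeast or mould inoculum at 2×10^3 CFU/ml was mixed 1:1 with DMSO-derived compound solutions (200 to 0.10 μg/ml before mixing) and incubated at 35 °C for 4 to 48 h. MIC was the concentration showing no growth.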
(Broth dilution looks for growth in wells or tubes with falling amounts of substance.)

In data set [4] the test system is Cryptococcus neoformans A. 34144. The data set is described as above. Format: cell-based. Conditions: Cry. neoformans A. 34144, RPMI-1640, 35° C., 4 to 48 hours. The method in brief: as §1
Data set [5] concerns Candida tropicalis A. 13803. Described as above. Format: cell-based. Conditions: C. tropicalis A. 13803, RPMI-1640, 35° C., 4 to 48 hours. The method in brief: as §1
Data set [6] concerns Cryptococcus neoformans IFM. 40092. The description is as above. Format: cell-based. Particulars: Cry. neoformans IFM. 40092, RPMI-1640, 35° C., 4 to 48 hours. The method in brief: as §1
Data set [7] relates to Candida parapsitosis A. 7330. The data set is described as above. Format: cell-based. Particulars: C. parapsitosis A. 7330, RPMI-1640, 35° C., 4 to 48 hours. The method in brief:
as §1

The test system of another data set is Candida krusei K. 11655. The description is as above. Format: cell-based. Conditions: C. krusei K. 11655, RPMI-1640, 35° C., 4 to 48 hours. The method in brief:
as §1

Data set [8] deals with Trichophyton mentagrophytes A. 9129. The description is as above. Format: cell-based. Particulars: T. mentagrophytes A. 9129, RPMI-1640, 35° C., 4 to 48 hours. The method in brief:
as §1

In data set [9] the test system is Candida albicans A. 10231. The description is as above. Type of data set: cell-based. Conditions: C. albicans A. 10231, RPMI-1640, 35° C., 4 to 48 hours. The method in brief: as §1
For data set [10], the system named is Torulopsis glabrata B. 16205. The data set is described as above. Format: cell-based. Conditions: T. glabrata B. 16205, RPMI-1640, 35° C., 4 to 48 hours. The method in brief:
as §1

The test system of the next data set is Candida albicans C1-2. The data set is described as above. Conditions: C. albicans C1-2, RPMI-1640, 35° C., 4 to 48 hours. Format: cell-based. The method in brief: as §1
Data set [11] concerns Aspergillus furnigatus B. 19119. The data set is described as above. Type of data set: cell-based. Conditions: A furnigatus B. 19119, RPMI-1640, 35° C., 4 to 48 hours. The method in brief: as §1
Data set [12] relates to Cryptococcus neoformans B. 42419. The description is as above. Conditions: Cry. neoformans B. 42419, RPMI-1640, 35° C., 4 to 48 hours. Format: cell-based. The method in brief: as §1
The subject of data set [13] is Candida albicans IFO. 1385. Described as above. Format: cell-based. Conditions: C. albicans IFO. 1385, RPMI-1640, 35° C., 4 to 48 hours. The method in brief: as §1
The subject of data set [14] is Aspergillus niger A. 16404. The description is as above. Type of data set: cell-based. Conditions: A. niger A. 16404, RPMI-1640, 35° C., 4 to 48 hours. The method in brief:
as §1

A further data set concerns ICR mice. Particulars: for LD50: single oral administration in corn oil containing 30% DMSO, observed for 7 days. As to the method:
30 four-week-old, specific pathogen-free ICR mice, 15 female mice each weighing about 15.8 to 22.3 g and 15 male mice each weighing about 18.7 to 25.6 g, were provided by the Animal Center of Korean Research Institute of Chemical and Technology.
When the mice became five-week-old, 15 female mice each weighing about 17.0 to 22.3 g and 15 male mice each weighing about 22.0 to 27.7 g were bred for 6 days before the experiment under an environment of […], 50±10% relative humidity, 12L/12D photoperiod, 10-20 ventilation and 150-300 Lux illumination, with free access to food(Cheil Fodder Co.) which had been sterilized by using 2.0 Mrad radiation and water sterilized by U.V. sterilizer.
The compound of Example 26 of the present invention was dissolved in corn oil containing 30% DMSO and the solution was orally administered in doses of 10, 50, 100, 500, 1,000 and 2,000 mg of the compound/kg of the body weight(10 ml of the sample volume/kg of the body weight). […] The weight changes of the mice were recorded every day to examine the effect of the test compound. Further, on the 7th day, the mice were sacrificed and the internal organs were visually examined.

SMILES strings stand for the structures. Converted amounts (≈) assume the structure as drawn. Read-outs that look alike come from different tables or passages of the source.

As for `CC(=O)N1CCN(c2ccc(OCC3COC(Cn4ccnc4)(c4ccc(Cl)cc4Cl)O3)cc2)CC1` (centres unmarked) [ketoconazole], the LD50 with mouse [1] is 702 mg/kg.

With `C[C@@H]1[C@H](O)[C@@H](C)/C=C/C=C/C=C/C=C/C=C/C=C/C=C/[C@H](O[C@@H]2O[C@H](C)[C@@H](O)[C@H](N)[C@@H]2O)C[C@@H]2O[C@](O)(C[C@@H](O)C[C@@H](O)[C@H](O)CC[C@@H](O)C[C@@H](O)CC(=O)O[C@H]1C)C[C@H](O)[C@H]2C(=O)O` [amphotericin B], the LD50 in the data set with mouse [2] is listed as 4 mg/kg.

Take `COc1cccc(C(=C(F)OCC2COC(Cn3ccnc3)(c3ccc(Cl)cc3Cl)O2)C(F)(F)F)c1` (centres unmarked) [Example 26]: the “Minimal inhibitory concentration (MIC)” value came to 0.78 µg/mL (≈ 1.43 µM) in data set [3]; 1.56 µg/mL (≈ 2.85 µM) in data set [4]; 12.5 µg/mL (≈ 22.8 µM) in [5]; 0.39 µg/mL (≈ 0.713 µM) in data set [6]; 12.5 µg/mL (≈ 22.8 µM) in data set [7]; 25.0 µg/mL (≈ 45.7 µM) in the data set with Candida krusei K. 11655. Besides, the “Minimal inhibitory concentration (MIC)” value amounted to 1.56 µg/mL (≈ 2.85 µM) in data set [8]; 6.25 µg/mL (≈ 11.4 µM) in [9]; 6.25 µg/mL (≈ 11.4 µM) in data set [10]; 6.25 µg/mL (≈ 11.4 µM) in the data set with Candida albicans C1-2; 3.13 µg/mL (≈ 5.72 µM) in data set [11]; 1.56 µg/mL (≈ 2.85 µM) in [12]. Also, the “Minimal inhibitory concentration (MIC)” value was 0.39 µg/mL (≈ 0.713 µM) in [13] and 6.25 µg/mL (≈ 11.4 µM) in [14]. Besides, the 50% lethal dose (LD50) result in the data set with ICR mice (female) is “approximately 2,000 mg/kg”; with ICR mice (male), “higher than 2,000 mg/kg”. Besides, the “survival at day 7” value in the data set on ICR mice (single oral dose of 1,000 mg/kg or below) is recorded as “All the mice were alive at day 7”. In addition, in the data set on ICR mice (single oral doses 10 to 2,000 mg/kg, 7 day test period), the weight loss entry is “no weight loss was observed”.

Usually LD50 stands for the dose expected to kill half of the subjects tested.
